Consider 13 compounds from ChEMBL document CHEMBL1131383, “Syntheses and biological evaluation of indolocarbazoles, analogues of rebeccamycin, modified at the imide heterocycle” (J Med Chem, 1998).

Assay [1] relates to Bacillus cereus. The assay can be described thus: Antimicrobial activity is tested against Bacillus cereus. In kind it is functional.
The test system of assay [2] is CEM-SS. In words: Inhibitory concentration is tested in HIV-1 Lai-infected CEM-SS cells. In kind it is functional, cell-based. To be noted: Homo sapiens.
The subject of assay [3] is CEM-SS. The assay can be described thus: Cytotoxic concentration is tested against CEM-SS cells. In kind it is functional. Particulars: Homo sapiens.
In a further assay the test system is P388CPT5. In words: Antiproliferative activity measured against P388CPT5 cells resistant to Topoisomerase I inhibitor Camptothecin. In kind it is functional, cell-based. To be noted: Mus musculus.
In a further assay the target is Protein kinase C (PKC). The assay can be described thus: Inhibition of Protein kinase C. In kind it is protein assay.
Assay [4] has as its target T1, DNA topoisomerase 1 (Homo sapiens) (UniProt P11387).
T1 sequence (whole entry): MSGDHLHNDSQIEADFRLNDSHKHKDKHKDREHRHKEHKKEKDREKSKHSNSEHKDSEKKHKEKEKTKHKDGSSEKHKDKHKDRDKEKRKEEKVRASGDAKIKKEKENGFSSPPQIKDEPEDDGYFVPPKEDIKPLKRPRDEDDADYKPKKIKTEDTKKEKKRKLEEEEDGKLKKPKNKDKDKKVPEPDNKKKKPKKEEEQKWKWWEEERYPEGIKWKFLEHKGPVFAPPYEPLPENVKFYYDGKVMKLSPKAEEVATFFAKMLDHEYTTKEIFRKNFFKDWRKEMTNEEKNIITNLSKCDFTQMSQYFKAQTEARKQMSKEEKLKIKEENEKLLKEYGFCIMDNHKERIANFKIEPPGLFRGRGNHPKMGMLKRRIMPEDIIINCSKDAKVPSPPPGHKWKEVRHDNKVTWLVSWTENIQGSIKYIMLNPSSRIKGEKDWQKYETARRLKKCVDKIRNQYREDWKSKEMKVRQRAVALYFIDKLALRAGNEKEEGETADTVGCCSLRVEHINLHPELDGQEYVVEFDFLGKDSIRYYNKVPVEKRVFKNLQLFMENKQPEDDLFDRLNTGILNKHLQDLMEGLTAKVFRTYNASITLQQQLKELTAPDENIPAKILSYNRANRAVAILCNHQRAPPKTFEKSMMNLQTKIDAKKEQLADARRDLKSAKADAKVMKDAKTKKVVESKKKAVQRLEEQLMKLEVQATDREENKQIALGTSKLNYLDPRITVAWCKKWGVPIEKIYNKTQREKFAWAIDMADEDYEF
The assay can be described thus: Inhibition of human Topoisomerase I.

Assay [5] can be described thus: Selectivity was measured [Selectivity = (CC50/IC50) against HIV-1 infected CEM-SS cells]. In kind it is functional.
The next assay relates to B16. The assay can be described thus: Antiproliferative activity measured against murine B16 melanoma cells. In kind it is functional, cell-based. Particulars: Mus musculus.
In a further assay the test system is P388. The assay can be described thus: Antiproliferative activity measured against P388 Leukemia cells. The class given is functional, cell-based, Mus musculus.
For the next assay, the system named is Streptomyces chartreusis. In words: In Vitro growth inhibitory effect of compounds against Gram-Positive Bacteria Streptomyces chartreusis NRRL11407. The class given is functional.
Assay [6] concerns Bacillus cereus. In words: In Vitro growth inhibitory effect of compounds against Gram-Positive Bacteria Bacillus cereus ATCC 14579. In kind it is functional.

pIC50: −log10 of the molar value. Converted amounts (≈) assume the structure as drawn.

As usually defined, the pIC50 is the IC50 on a negative log10 scale, so that one unit is a factor of ten. What is called CC50 is the concentration at which the toxic effect on the cells reaches its halfway point. As a reminder, the IC50 is the concentration that gives 50% inhibition. As to `CO[C@H]1[C@H](O)[C@@H](O)[C@H](n2c3ccccc3c3c4c(c5c6ccccc6[nH]c5c32)C(=O)NC4)O[C@@H]1CO.CO[C@H]1[C@H](O)[C@@H](O)[C@H](n2c3ccccc3c3c4c(c5c6ccccc6[nH]c5c32)CNC4=O)O[C@@H]1CO`, the results for the MIC (against Bacillus cereus [1]; in assay [4]) were 25 µM and 0.02 µM, respectively. Further, the pIC50 in the assay with CEM-SS [2] was 5.39; with P388CPT5, 5.52. Also, in the assay on CEM-SS [3], half-maximal cytotoxicity (CC50) was put at 14.3 µM. At Protein kinase C (PKC), the IC50 was determined as 3.7 µM. Also, the Selectivity index in assay [5] was determined as 3.5.

For the compound `CO[C@H]1[C@H](O)[C@@H](O)[C@H](n2c3ccccc3c3c4c(c5c6ccccc6n(C)c5c32)C(=O)OC4=O)O[C@@H]1CO`, the pIC50 is 4.51 in the assay on B16; under 5.01 in the assay with CEM-SS [2]; under 4.72 in the assay with P388 (Mus musculus, P388). Besides, the MIC in the assay on Bacillus cereus [1] is over 97 µM; in assay [4], over 19 µM. Besides, in the assay with CEM-SS [3], the CC50 is over 9.7 µM. Further, in the assay on Streptomyces chartreusis, the Inhibition zone came out at 7 mm.

In the case of `CO[C@H]1[C@H](O)[C@@H](O)[C@H](n2c3ccccc3c3c4c(c5c6ccccc6n(C)c5c32)C(=O)N(C)C4=O)O[C@@H]1CO`, the pIC50 was 5.10 with B16; under 4.72 with CEM-SS [2]; under 4.72 with P388 (Mus musculus, P388). Besides, the results for the Inhibition zone in the assay on Bacillus cereus [6] and with Streptomyces chartreusis were 8 mm and 12 mm, respectively. In addition, the figures for the MIC (against Bacillus cereus [1]; in assay [4]) were 94 µM (≈ 49.8 µg/mL) and over 19 µM, respectively. This compound displayed a CC50 with CEM-SS [3] of over 19 µM.

For the compound `CO[C@H]1[C@H](O)[C@@H](O)[C@H](n2c3c(Cl)cccc3c3c4c(c5c6cccc(Cl)c6[nH]c5c32)C(=O)N(C)C4)O[C@@H]1CO.CO[C@H]1[C@H](O)[C@@H](O)[C@H](n2c3c(Cl)cccc3c3c4c(c5c6cccc(Cl)c6[nH]c5c32)CN(C)C4=O)O[C@@H]1CO`, the pIC50 with B16 was 6.32; with CEM-SS [2], 6.51; in the assay on P388 (Mus musculus, P388), 6.28; in the assay on P388CPT5 it was 5.39. Also, the MIC was over 88 µM against Bacillus cereus [1] and 17.6 µM in assay [4]. In addition, the midpoint of cytotoxicity in the assay with CEM-SS [3], the CC50, lay at 1.72 µM. Besides, the Inhibition zone with Streptomyces chartreusis was 9 mm. Moreover, the Selectivity index in assay [5] is 5.5.

`CO[C@H]1[C@H](O)[C@@H](O)[C@H](n2c3c(Cl)cccc3c3c4c(c5c6cccc(Cl)c6[nH]c5c32)C(=O)NC4)O[C@@H]1CO.CO[C@H]1[C@H](O)[C@@H](O)[C@H](n2c3c(Cl)cccc3c3c4c(c5c6cccc(Cl)c6[nH]c5c32)CNC4=O)O[C@@H]1CO`: the figures for the MIC (with Bacillus cereus [1]; in assay [4]) were 5.6 µM and 1.8 µM, respectively. Further, the pIC50 with CEM-SS [2] was 6.44; in the assay on P388 (Mus musculus, P388), under 3.90; in the assay on P388CPT5, 5.52. In the assay on CEM-SS [3], this compound had a CC50 of 1.15 µM. The compound also registered an IC50 at Protein kinase C (PKC) of 28.8 µM. For the same compound, the Selectivity index in assay [5] was 3.2.

Consider `CO[C@H]1[C@H](O)[C@@H](O)[C@H](n2c3ccccc3c3c4c(c5c6ccccc6[nH]c5c32)C(=O)N(C)C4)O[C@@H]1CO.CO[C@H]1[C@H](O)[C@@H](O)[C@H](n2c3ccccc3c3c4c(c5c6ccccc6[nH]c5c32)CN(C)C4=O)O[C@@H]1CO`, for which the pIC50 with B16 is 5.30; with CEM-SS [2] it was 6.22; in the assay on P388 (Mus musculus, P388) it was 5.47; in the assay with P388CPT5 it was under 4.70. The Inhibition zone with Bacillus cereus [6] and in the assay on Streptomyces chartreusis was 9 mm in each case. The MIC was 24 µM with Bacillus cereus [1] and 19.9 µM in assay [4]. The CC50 in the assay on CEM-SS [3] was 8.38 µM. Further, in [5], the Selectivity index came out at 14.

In the assay on Bacillus cereus [1], `CO[C@H]1[C@H](O)[C@@H](O)[C@H](n2c3c(Cl)cccc3c3c4c(c5c6cccc(Cl)c6[nH]c5c32)C(=O)N(C)C4=O)O[C@@H]1CO` (stereo in doubt; A) gave an MIC of over 85 µM. Further, the pIC50 is 5.30 with CEM-SS [2], 6.21 in the assay on P388 (p388) and 6.22 in the assay with P388CPT5. In the assay with CEM-SS [3], this compound showed a CC50 of 8.06 µM. The compound further returned an IC50 on Protein kinase C (PKC) of over 100 µM. In addition, the Selectivity index in assay [5] was found to be 1.6.

On to `CO[C@H]1[C@H](O)[C@@H](O)[C@H](n2c3c(Cl)cccc3c3c4c(c5c6cccc(Cl)c6[nH]c5c32)C(=O)NC4=O)O[C@@H]1CO` [REBECCAMYCIN], for which the Inhibition zone with Bacillus cereus [6] and in the assay with Streptomyces chartreusis was 9 mm each time. For the same compound, the MIC with Bacillus cereus [1] was determined as 10.9 µM (≈ 6.22 µg/mL). For the same compound, the pIC50 in the assay with CEM-SS [2] is 6.28; in the assay on P388 (Mus musculus, P388), 5.91; in the assay on P388CPT5, 4.98. For the same compound, half-maximal cytotoxicity in the assay with CEM-SS [3] (CC50) was put at 1.05 µM. Moreover, in assay [5], the Selectivity index stood at 2.

In the case of `CO[C@H]1[C@H](O)[C@@H](O)[C@H](n2c3ccccc3c3c4c(c5c6ccccc6[nH]c5c32)C(=O)OC4=O)O[C@@H]1CO`, the pIC50 with B16 is 4.76; with CEM-SS [2] it was under 5.70; with P388 (Mus musculus, P388), 5.20; with P388CPT5 it was under 4.70. Besides, the MIC against Bacillus cereus [1] is over 99 µM; in [4] it was 1.99 µM (≈ 1 µg/mL). Also, the CC50 in the assay on CEM-SS [3] is over 1.98 µM. This compound came in with an Inhibition zone with Streptomyces chartreusis of 7 mm.

Take `CO[C@H]1[C@H](O)[C@@H](O)[C@H](n2c3ccccc3c3c4c(c5c6ccccc6[nH]c5c32)C(=O)NC4=O)O[C@@H]1CO`: the pIC50 in the assay with B16 is 6.05; with CEM-SS [2] it was 6.80; with P388 (Mus musculus, P388) it was 6.16; in the assay with P388CPT5, under 4.70. This compound displayed an Inhibition zone in the assay with Bacillus cereus [6] of 7 mm. Besides, the figures for the MIC (with Bacillus cereus [1]; in [4]) were over 100 µM and 0.59 µM (≈ 0.296 µg/mL), respectively. In addition, the midpoint of cytotoxicity in the assay with CEM-SS [3], the CC50, lay at 0.9 µM. Besides, the Selectivity index in [5] is given as 5.6.

Turning to `CO[C@H]1[C@H](O)[C@@H](O)[C@H](n2c3ccc(Br)cc3c3c4c(c5c6cc(Br)ccc6[nH]c5c32)C(=O)OC4=O)O[C@@H]1CO`, the pIC50 with B16 is 4.89; with CEM-SS [2], 5.31; with P388 (Mus musculus, P388) it was 6.04; in the assay on P388CPT5, 5.12. Further, the MIC in the assay on Bacillus cereus [1] was over 75 µM; in assay [4], 1.52 µM (≈ 1 µg/mL). This compound registered a CC50 with CEM-SS [3] of 9.39 µM. Further, the Selectivity index in assay [5] is given as 1.9.

The compound `CO[C@H]1[C@H](O)[C@@H](O)[C@H](n2c3ccccc3c3c4c(c5c6ccccc6[nH]c5c32)C(=O)N(C)C4=O)O[C@@H]1CO` returned an MIC with Bacillus cereus [1] of 1.55 µM (≈ 0.799 µg/mL). In addition, the pIC50 was 5.38 in the assay on CEM-SS [2]; 5.97 in the assay with P388 (Mus musculus, P388); 6.15 with P388CPT5. Further, the CC50 in the assay with CEM-SS [3] stood at 7.96 µM. On Protein kinase C (PKC), the IC50 is over 100 µM. The compound further yielded a Selectivity index in [5] of 1.9.

Consider `CO[C@H]1[C@H](OC=O)[C@@H](O)[C@H](n2c3ccccc3c3c4c(c5c6ccccc6[nH]c5c32)C(=O)OC4=O)O[C@@H]1CO`, for which the figures for the Inhibition zone in the assay with Bacillus cereus [6] and with Streptomyces chartreusis were 8 mm and 12 mm, respectively. For the same compound, the MIC is over 94 µM with Bacillus cereus [1] and 5.7 µM (≈ 3.02 µg/mL) in assay [4]. The pIC50 with CEM-SS [2] is under 5.03; in the assay with P388 (Mus musculus, P388), under 4.72. Further, in the assay with CEM-SS [3], the CC50 is over 9.4 µM.
